In patent US8084470B2, “Substituted nicotinamide compounds and uses thereof” (Gruenenthal GmbH, priority 2007, dated 2011):

Assays:
[1] = tested on: male rats (Sprague-Dawley); assay: Formalin test, rat (second phase); type: in vivo; details: pain rate vs vehicle control, late phase
Protocol: The investigations to determine the antinociceptive activity of the compounds were carried out in the formalin test on male rats (Sprague-Dawley, 150-170 g).
In the formalin test, a distinction is made between the first (early) phase (0-15 min after formalin injection) and the second (late) phase (15-60 min after formalin injection) (D. Dubuisson, S. G. Dennis, Pain 4, 161-174 (1977)). The early phase, as a direct reaction to the formalin injection, represents a model for acute pain, while the late phase is regarded as a model for persistent (chronic) pain (T. J. Coderre, J. Katz, A. L. Vaccarino, R. Meizack, Pain, Vol. 52, p. 259, 1993).
The compounds according to the invention were investigated in the second phase of the formalin test in order to obtain information about the activity of substances in the case of chronic/inflammatory pain.
A nociceptive reaction was induced in freely mobile test animals by means of a single subcutaneous formalin injection (50 μl, 5% strength) into the dorsal side of the right rear paw, the reaction manifesting itself in the following behaviour parameters: lifting and holding of the affected paw (score 1), shaking or twitching (score 2), licking and biting (score 3). The differing behaviors induced by the formalin injection were detected continuously by observation of the animals in the late phase of the formalin test and were weighted differently in an evaluation. Normal behavior, in which the animal puts its weight on all four paws equally, was recorded as score 0. The time of administration before the formalin injection was chosen in dependence on the mode of administration of the compounds according to the invention (intraperitoneal: 15 min, intravenous: 5 min). After injection of substances that have antinociceptive activity in the formalin test, the described behaviours (score 1-3) of the animals are reduced or even eliminated. […] The nociceptive behaviour was calculated as the so-called pain rate (PR). […] Based on the PR calculations, the activity of the substance was determined as the change compared with the control in percent.

hKCNQ2/3 [2] = target: T1, hKCNQ2/3 (Homo sapiens, UniProt O43525+O43526); assay: Fluorescence assay using a voltage sensitive dye; type: cell-based; parameters: expressed in transfected cells; host or cells: CHO-K1
Protocol: Biological Data Fluorescence Assay Using a Voltage Sensitive Dye
Human CHO-K1 cells expressing KCNQ2/3 channels are cultivated adherently at 37° C., 5% CO2 and 95% humidity in cell culture bottles (e.g. 80 cm^2 TC flasks, Nunc) with DMEM-high glucose (Sigma Aldrich, D7777) including 10% FCS (PAN Biotech, e.g. 3302-P270521) or alternatively with MEM Alpha Medium (1×, liquid, Invitrogen, #22571), 10% fetal calf serum (FCS) (Invitrogen, #10270-106, heat-inactivated) and the necessary selection antibiotics.
Before being distributed for the measurements, the cells are washed with a 1×DPBS buffer without Ca^2+/Mg^2+ (e.g. Invitrogen, #14190-094) and detached from the bottom of the culture vessel by means of Accutase (PAA Laboratories, #L11-007) (incubation with Accutase for 15 min at 37° C.). The cell count then present is determined using a CASY™ cell counter (TCC model, Schärfe System) in order subsequently to apply, according to density optimization for the individual cell line, 20,000-30,000 cells/well/100 μl of the described nutrient medium to 96-well measuring plates of the Corning™ CellBIND™ type (Flat Clear Bottom Black Polystyrene Microplates, #3340). Incubation is then carried out for one hour at room temperature, without gassing or adjusting the humidity, followed by incubation for 24 hours at 37° C., 5% CO2 and 95% humidity.
The voltage-sensitive fluorescent dye from the Membrane Potential Assay Kit (Red™ Bulk format part R8123 for FLIPR, MDS Analytical Technologies™) is prepared by dissolving the contents of a vessel Membrane Potential Assay Kit Red Component A in 200 ml of extracellular buffer (ES buffer, 120 mM NaCl, 1 mM KCl, 10 mM HEPES, 2 mM CaCl2, 2 mM MgCl2, 10 mM glucose; pH 7.4). After removal of the nutrient medium, the cells are washed with 200 μl of ES buffer, then covered with a layer of 100 μl of the dye solution prepared above and incubated for 45 min at room temperature with the exclusion of light.
The fluorescence measurements are carried out with a BMG Labtech FLUOstar™ or BMG Labtech NOVOstar™ or BMG Labtech POLARstar™ instrument (525 nm excitation, 560 nm emission, Bottom Read mode). After incubation of the dye, 50 μl of the test substances in the desired concentrations, or 50 μl of ES buffer for control purposes, are introduced into separate cavities of the measuring plate and incubated for 30 min at room temperature while being shielded from light. The fluorescence intensity of the dye is then measured for 5 min and the fluorescence value F1 of each well is thus determined at a given, constant time. 15 μL of a 100 mM KCl solution ([…]) are then added to each well. The change in fluorescence is subsequently measured until all the relevant measured values have been obtained (mainly 5-30 min). At a given time after KCl application, a fluorescence value F2 is determined, in this case at the time of the fluorescence peak.
For calculation, the fluorescence intensity F2 is compared with the fluorescence intensity F1, and the agonistic activity of the target compound on the potassium channel is determined therefrom. F2 and F1 are calculated as follows:
[formula] In order to determine whether a substance has an agonistic activity,
[formula] for example, can be compared with
[formula] of control cells.
[formula] is determined by adding to the reaction batch only the buffer solution instead of the substance to be tested, determining the value F1K of the fluorescence intensity, adding the potassium ions as described above and measuring a value F2K of the fluorescence intensity. Then F2K and F1K are calculated as follows:
[formula] A substance has an agonistic activity on the potassium channel when
[formula] is greater than
[formula] Independently of the comparison of
[formula] it is also possible to conclude that a target compound has agonistic activity if an increase in
[formula] is to be observed as the dosage of the target compound increases. […]

hKCNQ2/3 [3] = target: T1, hKCNQ2/3; assay: Voltage clamp (patch-clamp) measurements; type: cell-based; parameters: expressed in transfected cells; host or cells: CHO-K1 (stably transfected); details: for MAN rel eff @ 10 μm [RG = 1]: test substance 10 μM at −40 mV, increase in current standardized to retigabine (10 μM) effect = 1
Protocol: Voltage Clamp Measurements
In order to confirm a KCNQ2/3-agonistic action of the substances electrophysiologically, patch-clamp measurements (Hamill et al., 1981) were carried out in voltage clamp mode on a stably transfected hKCNQ2/3 CHO-K1 cell line. After formation of the gigaseal, the cells were first clamped at a holding potential of −60 mV. Thereafter, depolarizing voltage jumps were applied up to a potential of +20 mV (increment: 20 mV, duration: 1 second) in order to confirm the functional expression of KCNQ2/3-typical currents. The testing of the substances was carried out at a potential of −40 mV. The increase in current induced by retigabine (10 μM) at −40 mV was first recorded as a positive control on each cell. After complete washing out of the retigabine effect (duration: 80 s), the test substance (10 μM) was applied. The increase in current induced by the test substance was standardized to the retigabine effect and indicated as the relative efficacy (see below). Hamill O P, Marty A, Neher E, Sakmann B, Sigworth F J.: Improved patch-clamp techniques for high-resolution current recording from cells and cell-free membrane patches. Pflugers Arch. 1981 August; 391(2):85-100. Voltage-clamp measurements were carried out only for selected compounds: […]

rat = assay: Chung test on the rat; type: in vivo; details: iv, i.v. administration
Description: In addition, Example 89 was investigated in the Chung test on the rat.

EC50 (hKCNQ2/3 [2]) [nM]	MAN rel eff @ 10 μm [RG = 1] (hKCNQ2/3 [3])	SMILES	other results
1010	1.06	O=C(NCC1CCCCC1)c1cccnc1SCCS(=O)(=O)c1ccccc1 [Example 56, N-(cyclohexylmethyl)-2-(2-(phenylsulfonyl)ethylthio)nicotinamide]	Change in % ([1]; 2.15 mg/kg i.v.): −34.1%
1180	0.47	O=C(NCCC1CCCCC1)c1cccnc1SCCS(=O)(=O)c1ccccc1 [Example 58, N-(2-cyclohexylethyl)-2-(2-(phenylsulfonyl)ethylthio)nicotinamide]	–

Continued, molecule first:

SMILES	EC50 (hKCNQ2/3 [2]) [nM]	MAN rel eff @ 10 μm [RG = 1] (hKCNQ2/3 [3])	other results
Cc1ccc(CNC(=O)c2cccnc2SCCS(=O)(=O)c2ccccc2)o1 [Example 61, N-(5-methylfuran-2-ylmethyl)-2-(2-(phenylsulfonyl)ethylthio)nicotinamide]	3470	0.81	–
Cc1cccc(CNC(=O)c2cccnc2SCCS(=O)(=O)c2ccccc2)c1 [Example 65, 2-(2-(phenylsulfonyl)ethylthio)-N-(3-tolylmethyl)nicotinamide]	580	0.4	–
O=C(NCc1cccs1)c1cccnc1SCCSc1cccc(C(F)(F)F)c1 [Example 73, N-(thiophen-2-ylmethyl)-2-(2-(3-(trifluoromethyl)phenylthio)ethylthio)-nicotinamide]	–	–	Change in % ([1]; 1 mg/kg i.v.): −29.9%
O=C(NCc1cccs1)c1cccnc1SCCS(=O)(=O)c1ccccc1 [Example 89, 2-(2-(phenylsulfonyl)ethylthio)-N-(thiophen-2-ylmethyl)nicotinamide]	2280	–	Change in % ([1]; 6.81 mg/kg i.v.): −74.2%; ED50 (rat): 6.3 mg/kg; EC50 (hKCNQ2/3 [3]; patch-clamp, hKCNQ2/3 CHO-K1 cell line, read-out: MAN EC50): 1010 nM
O=C(NCc1ccccn1)c1cccnc1SCCS(=O)(=O)c1cccc(C(F)(F)F)c1 [Example 90, N-(pyridin-2-ylmethyl)-2-(2-(3-(trifluoromethyl)phenylsulfonyl)ethylthio)-nicotinamide]	2490	0.79	–
